This assay is described as follows: effect of including leucine in the patch formula on appetite levels. Format: in vivo. To be noted: inclusion of leucine in the formula of the adhesive matrix; found experimentally, no method or data given. An excerpt: In an exemplary embodiment, adhesive matrix 130 may further include an anti-inflammatory. While dimethyl sulfoxide and menthol may in and of themselves act as anti-inflammatories, additional ingredients acting as dedicated anti-inflammatories may be added. For the purposes of this specification, “anti-inflammatory” is used to mean any medication, compound, or ingredient recognized by the FDA as useful for anti-inflammatory purposes. Yet further, adhesive matrix 130 may include amino acids. Leucine is an exemplary amino acid which may be incorporated into the formula. Leucine may function in the patch to synthesize sterols, and may also act to regulate blood pressure, energy levels, and hormone secretion. […] Adhesive matrix 130 may further comprises glycerin. Glycerin may act as a plasticizer and humectant to preserve the flexibility and formulaic integrity of adhesive matrix 130, and may also provide additional benefits of relieving skin irritation and reducing interference with skin oils when transdermal patch 100 is placed in contact with skin.

For `CC(C)C[C@H](N)C(=O)O` [leucine, Leucine], the appetite levels entry is given as “reduce appetite levels”.

Values taken from patent publication US20250090477A1, “TRANSDERMAL PATCH PROVIDING IMPROVED PERMEABILITY AND COMPOSITION” (HydraPatch Inc., priority 2019, published 2025).
